In ChEMBL document CHEMBL3217486, “Novel indolizine compounds as potent inhibitors of phosphodiesterase IV (PDE4): structureactivity relationship” (Medchemcomm, 2011) one finds IC50 data, which are given here for 39 compounds.

The target of the experiment is Phosphodiesterase 4 (Homo sapiens, UniProt P27815+Q08499+Q07343+Q08493). As to the kind of experiment: Inhibition of PDE4 isolated from human U937 cells using [3H]-cAMP as substrate after 30 mins by liquid scintillation counting analysis. Format: cell-free. To be noted: u-937.
Regarding `O=C(Nc1cccnc1)C(=O)c1cc(Cc2ccccc2)n2ccccc12`, the half-inhibitory concentration (IC50) (in general, the concentration needed to halve the response being measured) was found to be 348 nM.

Regarding `O=C(Nc1cccnc1)C(=O)c1cc(Cc2ccc(F)cc2)n2ccccc12`, the IC50 is recorded as 341 nM.

The compound `O=C(Nc1cccnc1)C(=O)c1cc(Cc2ccc(Cl)cc2)n2ccccc12` gave an IC50 of 165 nM. Compared with the last compound, the IC50 is about 2.1-fold lower.

`COc1ccc(Cc2cc(C(=O)C(=O)Nc3cccnc3)c3ccccn23)cc1` came in with an IC50 of 447 nM.

In turn, `O=C(Nc1cccnc1)C(=O)c1cc(Cc2ccc(O)cc2)n2ccccc12` had an IC50 of 327 nM.

On to `O=C(Nc1cccnc1)C(=O)c1cc(Cc2ccc([N+](=O)[O-])cc2)n2ccccc12`, for which the IC50 is 569 nM.

`Nc1ccc(Cc2cc(C(=O)C(=O)Nc3cccnc3)c3ccccn23)cc1`: the concentration for half-maximal inhibition (IC50) is 824 nM.

`N#Cc1ccc(Cc2cc(C(=O)C(=O)Nc3cccnc3)c3ccccn23)cc1` yielded an IC50 of 719 nM.

In turn, `O=C(Nc1cccnc1)C(=O)c1cc(Cc2ccc(C(F)(F)F)cc2)n2ccccc12` gave an IC50 of 372 nM. This IC50 is about 1.9-fold lower than that of the compound before.

`CC(C)c1ccc(Cc2cc(C(=O)C(=O)Nc3cccnc3)c3ccccn23)cc1` came in with an IC50 of 362 nM.

The compound `O=C(Nc1cccnc1)C(=O)c1cc(Cc2ccc(F)cc2)n2ccc(O)cc12` gave an IC50 of 414 nM.

For the compound `O=C(Nc1cccnc1)C(=O)c1cc(Cc2ccc(F)cc2)n2ccc(Cl)cc12`, the IC50 was found to be 239 nM.

In turn, `COc1ccn2c(Cc3ccc(Cl)cc3)cc(C(=O)C(=O)Nc3cccnc3)c2c1` came in with an IC50 of 1000 nM. Against the preceding compound, the IC50 is about 4.2-fold higher.

The compound `N#Cc1ccc(Cc2cc(C(=O)C(=O)Nc3cccnc3Cl)c3ccccn23)cc1` gave an IC50 of 4700 nM. Compared with the last compound, the IC50 is about 4.7-fold higher.

Turning to `O=C(Nc1c(Cl)ccnc1Cl)C(=O)c1cc(Cc2ccc(Cl)cc2)n2ccccc12`, the IC50 is reported as 84 nM.

As for `N#Cc1ccc(Cc2cc(C(=O)C(=O)Nc3c(Cl)ccnc3Cl)c3ccccn23)cc1`, the IC50 is listed as 250 nM.

Compound `O=C(Nc1c(Br)ccnc1Br)C(=O)c1cc(Cc2ccc(F)cc2)n2ccccc12` showed an IC50 of 10000 nM.

`COc1ccnc(OC)c1NC(=O)C(=O)c1cc(Cc2ccc(C#N)cc2)n2ccccc12` showed an IC50 of 10000 nM.

For `COc1ccc(NC(=O)C(=O)c2cc(Cc3ccc(C#N)cc3)n3ccccc23)cn1`, the IC50 came out at 1500 nM. This IC50 is about 6.7-fold lower than that of the compound before.

On to `N#Cc1ccc(Cc2cc(C(=O)C(=O)Nc3c(Cl)cncc3Cl)c3ccccn23)cc1`, for which the half-maximal inhibitory concentration (IC50) was 116 nM.

In the case of `O=C(Nc1c(Cl)cncc1Cl)C(=O)c1cc(Cc2ccc(Cl)cc2)n2ccccc12`, the IC50 was found to be 16 nM. Compared with the last compound, the IC50 is about 7.2-fold lower.

`COc1ccc(Cc2cc(C(=O)C(=O)Nc3c(Cl)cncc3Cl)c3ccccn23)cc1` displayed an IC50 of 40 nM.

`O=C(Nc1c(Cl)cncc1Cl)C(=O)c1cc(Cc2ccc(O)cc2)n2ccccc12`: the IC50 worked out at 15 nM.

On to `O=C(Nc1c(Cl)cncc1Cl)C(=O)c1cc(Cc2ccc(Cl)cc2)n2ccc(Cl)cc12`, for which the IC50 worked out at 26 nM.

Turning to `O=C(Nc1c(Cl)cncc1Cl)C(=O)c1cc(Cc2ccc(F)cc2)n2ccc(Cl)cc12`, the IC50 was 28 nM.

In turn, `O=C(Nc1c(Cl)cncc1Cl)C(=O)c1cc(Cc2ccc(F)cc2)n2ccc(F)cc12` had an IC50 of 13 nM.

Compound `O=C(Nc1c(Cl)cncc1Cl)C(=O)c1cc(Cc2ccc(O)cc2)n2ccc(Cl)cc12` displayed an IC50 of 2 nM.

Compound `COc1ccc(Cc2cc(C(=O)C(=O)Nc3c(Cl)cncc3Cl)c3cc(Cl)ccn23)cc1` had an IC50 of 12 nM.

For `N#Cc1ccc(Cc2cc(C(=O)C(=O)Nc3c(Cl)cncc3Cl)c3cc(Cl)ccn23)cc1`, the IC50 came out at 82 nM.

`O=C(Nc1c(Cl)c[n+]([O-])cc1Cl)C(=O)c1cc(Cc2ccc(F)cc2)n2ccc(Cl)cc12` yielded an IC50 of 54 nM.

Consider `O=C(Nc1c(Cl)c[n+]([O-])cc1Cl)C(=O)c1cc(Cc2ccc(F)cc2)n2ccc(F)cc12`, for which the IC50 is recorded as 18 nM.

As for `O=C(Nc1c(Cl)c[n+]([O-])cc1Cl)C(=O)c1cc(Cc2ccc(Cl)cc2)n2ccccc12`, the IC50 was 19 nM.

On to `COc1ccc(Cc2cc(C(=O)C(=O)Nc3c(Cl)c[n+]([O-])cc3Cl)c3ccccn23)cc1`, for which the IC50 turned out to be 80 nM.

Consider `O=C(Nc1c(Cl)c[n+]([O-])cc1Cl)C(=O)c1cc(Cc2ccc(O)cc2)n2ccccc12`, for which the IC50 came out at 29 nM.

`O=C(Nc1c(Cl)cccc1Cl)C(=O)c1cc(Cc2ccc(F)cc2)n2ccccc12` yielded an IC50 of 10000 nM.

`O=C(Nc1c(Cl)cc(C(F)(F)F)cc1Cl)C(=O)c1cc(Cc2ccc(F)cc2)n2ccccc12`: the IC50 amounted to 10000 nM. In other words, the double-digit micromolar range.

Regarding `O=C(Nc1c(Cl)cncc1Cl)C(=O)c1cc(Cc2ccc(F)cc2)c2ccccn12`, the half-inhibitory concentration (IC50) is reported as 6 nM.

Compound `O=C(Nc1c(Cl)c[n+]([O-])cc1Cl)C(=O)c1cc(Cc2ccc(F)cc2)c2ccccn12` gave an IC50 of 29 nM.

Take `O=C(Nc1c(Cl)cncc1Cl)C(=O)c1cn(Cc2ccc(F)cc2)c2ccc(O)cc12` [AWD-12-281]: the IC50 amounted to 14 nM.
